Data as given in patent EP0908457B1, “3-(1,2-benzisothiazol- and isoxazol-5-Y1)-2,4(1H,3H)-pyrimidinedione or thione and 3-(1,2-benzisothiazol- and isoxazol-5-y1)-4(3H)-pyrimidinone or thione herbicidal agents” (BASF AKTIENGESELLSCHAFT, priority 1997, dated 1999).

Assays:
Assay type in all cases: in vivo
[1] = test system: Cyperus serotinus, Rottb.; experiment: Preemergence weed control under flooded paddy conditions, CYPSE (Flatsedge); conditions: for CYPSE herbicidal rating / herbicidal effect rating, CYPSE: preemergence; for CYPSE: preemergence weeds, herbicidal effect rating 0-9, three to four weeks after treatment; as to herbicidal effect rating, CYPSE: meaning of each grade not given here
[2] = test system: Echinochloa oryzoides (Ard.) Fritsch.; experiment: Preemergence weed control under flooded paddy conditions, ECHORC (Watergrass (Calif.)); conditions: flooded paddy; for ECHORC herbicidal rating / herbicidal effect rating, ECHORC: preemergence; for ECHORC: preemergence weeds, herbicidal effect rating 0-9, three to four weeks after treatment; as to herbicidal effect rating, ECHORC: meaning of each grade not given here
Sagittaria pygmaea, L. = experiment: Preemergence weed control under flooded paddy conditions, SAGPY (Arrowhead (Pygmaea)); conditions: flooded paddy; for SAGPY herbicidal rating / herbicidal effect rating, SAGPY: preemergence; for SAGPY: preemergence weeds, herbicidal effect rating 0-9, three to four weeks after treatment; as to herbicidal effect rating, SAGPY: meaning of each grade not given here
Cyperus iria = experiment: Preemergence weed control under flooded paddy conditions, CYPIR (Rice Flatsedge); conditions: flooded paddy; for CYPIR herbicidal rating / herbicidal effect rating, CYPIR: preemergence; for CYPIR: preemergence weeds, herbicidal effect rating 0-9, three to four weeks after treatment; as to herbicidal effect rating, CYPIR: meaning of each grade not given here
[3] = test system: Monochoria vaginalis, Presl.; experiment: Preemergence weed control under flooded paddy conditions, MOOVA (Monochoria); conditions: flooded paddy; for MOOVA herbicidal rating / herbicidal effect rating, MOOVA: preemergence; for MOOVA: preemergence weeds, herbicidal effect rating 0-9, three to four weeks after treatment; as to herbicidal effect rating, MOOVA: meaning of each grade not given here
[4] = 0.0320 kg/ha, rated three to four weeks after treatment
[5] = 0.0620 kg/ha, rated three to four weeks after treatment
[6] = 0.1250 kg/ha, rated three to four weeks after treatment
[7] = 0.2500 kg/ha, rated three to four weeks after treatment
[8] = Rate 0.0320 kg/ha, rated three to four weeks after treatment
[9] = Rate 0.0620 kg/ha, rated three to four weeks after treatment
[10] = Rate 0.1250 kg/ha, rated three to four weeks after treatment
[11] = Rate 0.2500 kg/ha, rated three to four weeks after treatment
[12] = Rate 0.0320 kg/ha, rated 3-4 weeks after treatment
[13] = Rate 0.0620 kg/ha, rated 3-4 weeks after treatment
[14] = Rate 0.1250 kg/ha, rated 3-4 weeks after treatment
[15] = Rate 0.2500 kg/ha, rated 3-4 weeks after treatment
[16] = 0.0313 kg/ha, rated three to four weeks after treatment
[17] = 0.0625 kg/ha, rated three to four weeks after treatment

COC(=O)C(C)Oc1cc(C)c(I)cc1-c1nsc2ccc(-n3c(=O)cc(C(F)(F)F)n(C)c3=O)cc12 (stereo not drawn) [Example 470, Propionic acid, 2-{{6-{5-[3,6-dihydro-3-methyl-2,6-dioxo-4-(trifluoromethyl)-1(2H)-pyrimidinyl]-1,2-benzisothiazol-3-yl}-4-iodo-m-tolyl}oxy}-, methyl ester]
CYPSE herbicidal rating [1, 4]: 0.0 | CYPSE herbicidal rating [1, 5]: 0.0 | CYPSE herbicidal rating [1, 6]: 0.0 | CYPSE herbicidal rating [1, 7]: 4.5 | ECHORC herbicidal rating [2, 4]: 8.5 | ECHORC herbicidal rating [2, 5]: 9.0 | ECHORC herbicidal rating [2, 6]: 9.0 | ECHORC herbicidal rating [2, 7]: 9.0 | SAGPY herbicidal rating (Sagittaria pygmaea, L.; [4]): 0.0 | SAGPY herbicidal rating (Sagittaria pygmaea, L.; [5]): 0.0 | SAGPY herbicidal rating (Sagittaria pygmaea, L.; [6]): 0.0 | SAGPY herbicidal rating (Sagittaria pygmaea, L.; [7]): 1.5 | CYPIR herbicidal rating (Cyperus iria; [4]): 0.0 | CYPIR herbicidal rating (Cyperus iria; [5]): 0.0 | CYPIR herbicidal rating (Cyperus iria; [6]): 6.0 | CYPIR herbicidal rating (Cyperus iria; [7]): 7.0 | MOOVA herbicidal rating [3, 4]: 1.5 | MOOVA herbicidal rating [3, 5]: 2.0 | MOOVA herbicidal rating [3, 6]: 2.0 | MOOVA herbicidal rating [3, 7]: 3.0

CC(C)S(=O)(=O)OCc1nsc2ccc(-n3c(=O)cc(C(F)(F)F)n(C)c3=O)cc12 [Example 371, 2,4(1H,3H)-Pyrimidinedione, 3-[3-(hydroxymethyl)-1,2-benzisothiazol-5-yl]-1-methyl-6-(trifluoromethyl)-, 1-methylethanesulfonate (ester)]
herbicidal effect rating, CYPSE [1, 8]: 0.0 | herbicidal effect rating, CYPSE [1, 9]: 0.0 | herbicidal effect rating, CYPSE [1, 10]: 6.0 | herbicidal effect rating, CYPSE [1, 11]: 9.0 | herbicidal effect rating, ECHORC [2, 8]: 3.0 | herbicidal effect rating, ECHORC [2, 9]: 4.0 | herbicidal effect rating, ECHORC [2, 10]: 6.0 | herbicidal effect rating, ECHORC [2, 11]: 7.0 | herbicidal effect rating, SAGPY (Sagittaria pygmaea, L.; [8]): 3.0 | herbicidal effect rating, SAGPY (Sagittaria pygmaea, L.; [9]): 4.0 | herbicidal effect rating, SAGPY (Sagittaria pygmaea, L.; [10]): 9.0 | herbicidal effect rating, SAGPY (Sagittaria pygmaea, L.; [11]): 9.0 | herbicidal effect rating, CYPIR (Cyperus iria; [8]): 4.0 | herbicidal effect rating, CYPIR (Cyperus iria; [9]): 6.0 | herbicidal effect rating, CYPIR (Cyperus iria; [10]): 9.0 | herbicidal effect rating, CYPIR (Cyperus iria; [11]): 9.0 | herbicidal effect rating, MOOVA [3, 8]: 9.0 | herbicidal effect rating, MOOVA [3, 9]: 9.0 | herbicidal effect rating, MOOVA [3, 10]: 9.0 | herbicidal effect rating, MOOVA [3, 11]: 9.0

Cn1c(C(F)(F)F)cc(=O)n(-c2ccc3snc(CS(=O)(=O)c4ccccc4)c3c2)c1=O [Example 393, 2,4(1H,3H)-Pyrimidinedione, 1-methyl-3-{3-[(phenylsulfonyl)methyl]-1,2-benzisothiazol-5-yl}-6-(trifluoromethyl)-]
herbicidal effect rating, CYPSE [1, 8]: 0.0 | herbicidal effect rating, CYPSE [1, 9]: 0.0 | herbicidal effect rating, CYPSE [1, 10]: 3.0 | herbicidal effect rating, CYPSE [1, 11]: 6.0 | herbicidal effect rating, ECHORC [2, 8]: 2.0 | herbicidal effect rating, ECHORC [2, 9]: 4.0 | herbicidal effect rating, ECHORC [2, 10]: 4.0 | herbicidal effect rating, ECHORC [2, 11]: 9.0 | herbicidal effect rating, SAGPY (Sagittaria pygmaea, L.; [8]): 0.0 | herbicidal effect rating, SAGPY (Sagittaria pygmaea, L.; [10]): 3.0 | herbicidal effect rating, SAGPY (Sagittaria pygmaea, L.; [11]): 4.0 | herbicidal effect rating, CYPIR (Cyperus iria; [8]): 0.0 | herbicidal effect rating, CYPIR (Cyperus iria; [9]): 3.0 | herbicidal effect rating, CYPIR (Cyperus iria; [10]): 3.0 | herbicidal effect rating, CYPIR (Cyperus iria; [11]): 6.0 | herbicidal effect rating, MOOVA [3, 8]: 7.0 | herbicidal effect rating, MOOVA [3, 9]: 8.0 | herbicidal effect rating, MOOVA [3, 10]: 8.0 | herbicidal effect rating, MOOVA [3, 11]: 9.0

CCOC(=O)C1CCC(OC(=O)COc2ccc(C)cc2-c2nsc3ccc(-n4c(=O)cc(C(F)(F)F)n(C)c4=O)cc23)CC1 (single isomer, unassigned; isomer b) [Example 525, Acetic acid, {{2-{5-[3,6-dihydro-3-methyl-2,6-dioxo-4-(trifluoromethyl)-1(2H)-pyrimidinyl)-1,2-benzisothiazol-3-yl}-p-tolyl}oxy}-, ester with ethyl 4-hydroxycyclohexanecarboxylate, isomer B]
herbicidal effect rating, CYPSE [1, 12]: 0.0 | herbicidal effect rating, CYPSE [1, 13]: 0.0 | herbicidal effect rating, CYPSE [1, 14]: 0.0 | herbicidal effect rating, CYPSE [1, 15]: 0.0 | herbicidal effect rating, ECHORC [2, 12]: 6.0 | herbicidal effect rating, ECHORC [2, 13]: 7.0 | herbicidal effect rating, ECHORC [2, 14]: 9.0 | herbicidal effect rating, ECHORC [2, 15]: 9.0 | herbicidal effect rating, SAGPY (Sagittaria pygmaea, L.; [12]): 0.0 | herbicidal effect rating, SAGPY (Sagittaria pygmaea, L.; [13]): 0.0 | herbicidal effect rating, SAGPY (Sagittaria pygmaea, L.; [14]): 0.0 | herbicidal effect rating, SAGPY (Sagittaria pygmaea, L.; [15]): 0.0 | herbicidal effect rating, CYPIR (Cyperus iria; [12]): 0.0 | herbicidal effect rating, CYPIR (Cyperus iria; [13]): 2.0 | herbicidal effect rating, CYPIR (Cyperus iria; [14]): 2.0 | herbicidal effect rating, CYPIR (Cyperus iria; [15]): 4.0 | herbicidal effect rating, MOOVA [3, 12]: 9.0 | herbicidal effect rating, MOOVA [3, 13]: 9.0 | herbicidal effect rating, MOOVA [3, 14]: 9.0 | herbicidal effect rating, MOOVA [3, 15]: 9.0

2,4(1H,3H)-Pyrimidinedione, 3-[3-(hydroxymethyl)-1,2-benzisothiazol-5-yl]-1-methyl-6-(trifluoromethyl)-, chlorophenylacetate (ester) [Example 504]
CYPSE herbicidal rating [1, 4]: 0.0 | CYPSE herbicidal rating [1, 5]: 0.0 | CYPSE herbicidal rating [1, 6]: 0.0 | ECHORC herbicidal rating [2, 4]: 2.0 | ECHORC herbicidal rating [2, 5]: 3.0 | ECHORC herbicidal rating [2, 6]: 6.0 | ECHORC herbicidal rating [2, 7]: 7.0 | SAGPY herbicidal rating (Sagittaria pygmaea, L.; [4]): 0.0 | SAGPY herbicidal rating (Sagittaria pygmaea, L.; [7]): 7.0 | CYPIR herbicidal rating (Cyperus iria; [4]): 4.0 | CYPIR herbicidal rating (Cyperus iria; [5]): 7.0 | CYPIR herbicidal rating (Cyperus iria; [6]): 9.0 | CYPIR herbicidal rating (Cyperus iria; [7]): 9.0 | MOOVA herbicidal rating [3, 4]: 6.0 | MOOVA herbicidal rating [3, 5]: 8.0 | MOOVA herbicidal rating [3, 6]: 9.0 | MOOVA herbicidal rating [3, 7]: 9.0

CC(=O)OCc1nsc2ccc(-n3c(=O)cc(C(F)(F)F)n(C)c3=O)cc12 [Example 32, 3-[3-(Hydroxymethyl)-1,2-benzisothiazol-5-yl]-1-methyl-6-(trifluoromethyl)-2,4(1H,3H)-pyrimidinedione, acetate ester]
herbicidal effect rating, CYPSE [1, 16]: 0.0 | herbicidal effect rating, CYPSE [1, 17]: 0.0 | herbicidal effect rating, CYPSE [1, 6]: 2.0 | herbicidal effect rating, CYPSE [1, 7]: 7.0 | herbicidal effect rating, ECHORC [2, 16]: 2.0 | herbicidal effect rating, ECHORC [2, 17]: 3.5 | herbicidal effect rating, ECHORC [2, 6]: 4.5 | herbicidal effect rating, ECHORC [2, 7]: 7.5 | herbicidal effect rating, SAGPY (Sagittaria pygmaea, L.; [16]): 0.0 | herbicidal effect rating, SAGPY (Sagittaria pygmaea, L.; [17]): 0.0 | herbicidal effect rating, SAGPY (Sagittaria pygmaea, L.; [6]): 2.0 | herbicidal effect rating, SAGPY (Sagittaria pygmaea, L.; [7]): 9.0 | herbicidal effect rating, CYPIR (Cyperus iria; [16]): 4.0 | herbicidal effect rating, CYPIR (Cyperus iria; [17]): 6.0 | herbicidal effect rating, CYPIR (Cyperus iria; [6]): 8.0 | herbicidal effect rating, CYPIR (Cyperus iria; [7]): 9.0 | herbicidal effect rating, MOOVA [3, 16]: 8.0 | herbicidal effect rating, MOOVA [3, 17]: 9.0 | herbicidal effect rating, MOOVA [3, 6]: 9.0 | herbicidal effect rating, MOOVA [3, 7]: 9.0

Cn1c(C(F)(F)F)cc(=O)n(-c2ccc3snc(COC(=O)Cc4ccc(Cl)cc4Cl)c3c2)c1=O [Example 401, 2,4(1H,3H)-Pyrimidinedione, 3-[3-(hydroxymethyl)-1,2-benzisothiazol-5-yl]-1-methyl-6-(trifluoromethyl)-, (2,4-dichlorophenyl)acetate (ester)]
herbicidal effect rating, CYPSE [1, 9]: 0.0 | herbicidal effect rating, CYPSE [1, 10]: 0.0 | herbicidal effect rating, CYPSE [1, 11]: 3.0 | herbicidal effect rating, ECHORC [2, 8]: 0.0 | herbicidal effect rating, ECHORC [2, 9]: 0.0 | herbicidal effect rating, ECHORC [2, 10]: 2.0 | herbicidal effect rating, ECHORC [2, 11]: 6.0 | herbicidal effect rating, SAGPY (Sagittaria pygmaea, L.; [8]): 0.0 | herbicidal effect rating, SAGPY (Sagittaria pygmaea, L.; [9]): 0.0 | herbicidal effect rating, SAGPY (Sagittaria pygmaea, L.; [10]): 2.0 | herbicidal effect rating, SAGPY (Sagittaria pygmaea, L.; [11]): 3.0 | herbicidal effect rating, CYPIR (Cyperus iria; [8]): 3.0 | herbicidal effect rating, CYPIR (Cyperus iria; [9]): 4.0 | herbicidal effect rating, CYPIR (Cyperus iria; [10]): 5.0 | herbicidal effect rating, CYPIR (Cyperus iria; [11]): 6.0 | herbicidal effect rating, MOOVA [3, 8]: 6.0 | herbicidal effect rating, MOOVA [3, 9]: 7.0 | herbicidal effect rating, MOOVA [3, 10]: 7.0 | herbicidal effect rating, MOOVA [3, 11]: 9.0

Cn1c(C(F)(F)F)cc(=O)n(-c2ccc3snc(COC(=O)Cc4ccc(Cl)cc4)c3c2)c1=O [Example 452, 2,4(1H,3H)-Pyrimidinedione, 3-[3-(hydroxymethyl)-1,2-benzisothiazol-5-yl]-1-methyl-6-(trifluoromethyl)-, (p-chlorophenyl)acetate (ester)]
CYPSE ([1]; 0.0320 kg/ha): 0.0 | CYPSE ([1]; 0.2500 kg/ha): 7.0 | ECHORC ([2]; 0.0320 kg/ha): 0.0 | ECHORC ([2]; 0.0620 kg/ha): 3.0 | ECHORC ([2]; 0.1250 kg/ha): 3.0 | ECHORC ([2]; 0.2500 kg/ha): 7.0 | SAGPY (Sagittaria pygmaea, L.; 0.0320 kg/ha): 0.0 | SAGPY (Sagittaria pygmaea, L.; 0.0620 kg/ha): 0.0 | SAGPY (Sagittaria pygmaea, L.; 0.1250 kg/ha): 0.0 | SAGPY (Sagittaria pygmaea, L.; 0.2500 kg/ha): 2.0 | CYPIR (Cyperus iria; 0.0320 kg/ha): 4.0 | CYPIR (Cyperus iria; 0.0620 kg/ha): 6.0 | CYPIR (Cyperus iria; 0.1250 kg/ha): 9.0 | CYPIR (Cyperus iria; 0.2500 kg/ha): 9.0 | MOOVA ([3]; 0.0320 kg/ha): 9.0 | MOOVA ([3]; 0.0620 kg/ha): 9.0 | MOOVA ([3]; 0.1250 kg/ha): 9.0 | MOOVA ([3]; 0.2500 kg/ha): 9.0
